Data set [1] deals with B16-melanoma cells adhesion to FN. The data set can be described thus: Inhibition of B16-melanoma cell adhesion to FN. The class given is cell-based, murine.
In data set [2] the test system is CD4^+ T cell adhesion to FN. The data set can be described thus: Inhibition of activated CD4+ T cell adhesion to FN. Type of data set: cell-based, human. As to the method:
To examine the adhesive properties of the T cells, 1 μg/50 μl/well of either fibronectin (FN) (Sigma), the 120 kD cell attachment fragment of FN (Telios Pharm. Inc. San Diego, CA), or laminin (LN) (Sigma), were added to 96-flat bottom microtiter-wells for 12 h. Unbound proteins were then washed away and remaining binding sites were blocked with 0.1% bovine serum albumin (BSA) added to the wells for 2 h and washed. CD4+T cells were purified from peripheral blood mononuclear leukocytes obtained from healthy human donors. The mononuclear cells were isolated using a Ficoll gradient, washed and incubated in RPMI supplemented with 10% fetal calf serum (FCS) and antibiotics in petri dishes at 37° C. humidified CO2 incubator. After 2 h, the non-adherent cells were isolated and applied on nylon-wool columns (1.5 h). CD4^+ T cells were then negatively selected by exposure of the cells to a cocktail of anti-CD8, CD19, and CD14 monoclonal antibodies (mAb) conjugated to magnetic-beads (Advanced Magnetics, MA). Unbound cells were recovered and their phenotype was examined. Purity of the CD4^+ T cells was always greater than 92% as determined by FACScan.
The purified CD4^+ T cells were radioactively labeled with ^51 [Cr](New England Nuclear) in RPMI +20% FCS for 2 h and washed. The cells were counted and seeded (0.2×10^5 cells) on the precoated microtiter wells in the presence or the absence of the various inhibitors. Coating was made either with FN, the 120 kD cell-attachment fragment of FN or with control adhesive protein laminin (LN). The inhibitors were various surrogates according to the invention, other test molecules or mAb. After 30 min incubation (in […] CO2 -- humidified incubator) the T cells were activated by 10 ng/ml phorbol myristate acetate (PMA) and the percent of T cells attached to the protein substrates was measured. Unbound cells were washed away after 20-30 min, the bound cells were lysed and their radioactivity was measured using radioactive counter. The amount of the radioactivity of the cell lysates represent the matrix-adherent cells and percent binding was calculated in comparison to the total radioactivity added to the wells. Activated T cell adhesion to control wells or to wells coated with BSA was always 2-5%; the level of adhesion of the non-activated T cells was always below 5%. Where indicated, 1/200 diluted mAb anti-CD29 (anti-β1 mAb Serotec, GB), or 1/400 diluted anti-VLA5 (the β1α5 FN-integrin receptor) mAb (Telios Pharm. Inc. San Diego), or 0.2 mM of RGD, GRGDSPK or GRGESP peptides (Sigma) were used. […] The results shown in Tables 1A, 1B and 1C represent data obtained from several experiments that produced essentially similar results.
In a second series of experiments, FN was used in the adhesion assay carried out with the RGD surrogates NS-8, NS-11 and NS-15 in comparison to RGDS peptide.
In a third series of experiments, FN was used in the adhesion assay with the surrogates SF-6,5 and NS-11 and compared to the peptide GRGDSP.

The target in data set [3] is T1, platelet GPIIb-IIIa receptor (Homo sapiens, UniProt P05106+P08514).
T1 construct: Platelet concentrates were prepared from human whole blood; endogenous in cells; host or cells: human platelets in platelet rich plasma
T1 sequence (P08514 32-887 limits assumed): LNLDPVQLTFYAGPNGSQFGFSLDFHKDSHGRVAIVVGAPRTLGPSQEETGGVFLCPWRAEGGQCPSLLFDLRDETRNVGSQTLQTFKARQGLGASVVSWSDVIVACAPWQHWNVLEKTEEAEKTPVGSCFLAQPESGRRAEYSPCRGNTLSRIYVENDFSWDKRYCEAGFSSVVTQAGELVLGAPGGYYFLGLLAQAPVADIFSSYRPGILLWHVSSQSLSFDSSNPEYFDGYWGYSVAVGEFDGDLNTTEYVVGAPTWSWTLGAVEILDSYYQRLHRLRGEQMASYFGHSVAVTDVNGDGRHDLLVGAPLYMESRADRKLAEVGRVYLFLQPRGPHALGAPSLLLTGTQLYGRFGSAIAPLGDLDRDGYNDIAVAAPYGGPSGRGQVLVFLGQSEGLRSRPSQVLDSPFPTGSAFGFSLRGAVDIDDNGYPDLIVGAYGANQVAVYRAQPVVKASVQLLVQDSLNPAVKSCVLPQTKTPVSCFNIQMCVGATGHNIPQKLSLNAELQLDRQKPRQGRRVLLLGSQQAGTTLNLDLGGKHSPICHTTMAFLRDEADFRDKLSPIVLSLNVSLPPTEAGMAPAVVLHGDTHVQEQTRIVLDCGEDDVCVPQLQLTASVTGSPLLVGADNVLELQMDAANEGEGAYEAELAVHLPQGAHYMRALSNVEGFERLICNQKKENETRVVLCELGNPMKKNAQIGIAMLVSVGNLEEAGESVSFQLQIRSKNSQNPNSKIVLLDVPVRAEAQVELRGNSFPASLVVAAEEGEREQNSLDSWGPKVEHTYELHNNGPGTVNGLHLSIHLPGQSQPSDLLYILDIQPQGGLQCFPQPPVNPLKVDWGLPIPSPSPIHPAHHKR
T1 sequence (P08514 891-1039 limits assumed): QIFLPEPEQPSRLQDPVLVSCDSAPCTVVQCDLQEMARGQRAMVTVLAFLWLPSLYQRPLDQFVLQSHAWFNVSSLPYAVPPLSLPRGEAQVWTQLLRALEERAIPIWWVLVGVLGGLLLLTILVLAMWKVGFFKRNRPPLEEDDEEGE
T1 sequence (P05106 27-788): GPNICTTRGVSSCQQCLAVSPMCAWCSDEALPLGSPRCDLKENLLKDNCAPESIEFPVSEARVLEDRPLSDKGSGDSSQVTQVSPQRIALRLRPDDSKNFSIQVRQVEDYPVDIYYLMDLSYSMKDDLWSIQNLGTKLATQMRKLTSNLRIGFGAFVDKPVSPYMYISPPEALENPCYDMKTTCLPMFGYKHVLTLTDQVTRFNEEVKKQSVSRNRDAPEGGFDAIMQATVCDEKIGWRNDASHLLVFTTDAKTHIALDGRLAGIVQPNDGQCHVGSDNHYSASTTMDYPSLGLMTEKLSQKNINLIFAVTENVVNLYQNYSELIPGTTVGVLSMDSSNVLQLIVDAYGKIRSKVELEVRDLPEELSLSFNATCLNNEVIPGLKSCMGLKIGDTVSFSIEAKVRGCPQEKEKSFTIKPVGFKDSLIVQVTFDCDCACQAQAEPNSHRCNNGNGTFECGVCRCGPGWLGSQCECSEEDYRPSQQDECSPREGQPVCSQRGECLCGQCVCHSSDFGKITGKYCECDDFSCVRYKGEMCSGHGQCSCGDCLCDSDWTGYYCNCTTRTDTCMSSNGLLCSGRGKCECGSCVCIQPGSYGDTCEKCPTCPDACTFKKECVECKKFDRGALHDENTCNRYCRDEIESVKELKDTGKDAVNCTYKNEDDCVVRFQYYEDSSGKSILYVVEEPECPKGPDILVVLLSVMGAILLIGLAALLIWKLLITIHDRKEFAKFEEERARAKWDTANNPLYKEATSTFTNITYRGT
The data set can be described thus: Inhibition of ADP-induced platelet aggregation (platelet rich plasma). Type of data set: cell-based. As to the method: To investigate the inhibitory role of the RGD analogues on adhesion, the platelet GPIIb-IIIa receptor which mediates platelet aggregation upon activation was used as a model.
Platelet concentrates were prepared from human whole blood in 10% adenine-citrate-dextrose in Fenwall bags (Baxter Travenol, Israel) followed by standard AABB protocol. Platelet rich plasma was prepared by centrifugation (2500 rpm for 5 min). Samples of platelets were counted in a Minos AST Cell Counter (Levoiselle, France). Cell aggregation was induced by […] and monitored at […] in a 4-channel Aggregometer (Bio-Data, Hatboro, Pa.). To evaluate the effect of the various RGD peptides and the peptide analogues, the platelet rich plasma was pre-incubated with the various inhibitors for 10 min at 37° C. with 10μsolutions followed by the induction of aggregation.
To examine the specificity of the inhibitory effect of the RGD-analogues on platelet aggregation, the cells were treated with various peptidic (RGD and GRGDSP) and non-peptidic (SF-6,6, SF-6,5 and AC-15) RGD analogues used at a fixed sub-saturating concentration of 0.5 mM.
An in vitro assay as described in Example 17 was carried out with the compound NS-11 to examine its ability to interfere with platelet aggregation, and compared it to the SF-6,5 surrogate.
Platelet rich plasma (PRP) was prepared from acid/citrate/dextrose anti-coagulated fresh human blood by differential centrifugation. Platelet aggregation was induced by […] and monitored at 695 nm by a 4-channel Aggregometer (Bio-Data, PA). To evaluate the effect of the RGDS peptide and the NS-8, NS-11 and NS-15 analogs, the PRP was preincubated with the inhibitors for 10 minutes at 37° C., prior to the induction of aggregation. […] In fact, 50% inhibition of platelet aggregation was achieved using a 30-fold lower concentration of NS-11 than that of RGDS.

Data set [4] has as its system trypsin. The data set can be described thus: Treatment with trypsin (HPLC monitoring of hydrolysis). The class given is in vitro ADME. Conditions: 0.25% trypsin, 37° C., HPLC at 220 nm, aliquots 5, 30, 60 min. The method, then: Compound SF-6,5 and the GRGDS peptide (50 μg in 100 μl PBS) were incubated at 37° C. and exposed to 0.25% trypsin (Gibco; 50μl in modified Puck's buffer). Aliquots were taken after 5, 30 and 60 min and monitored by HPLC at 220 nm.

Data set [5] has as its system tumor cell-induced metastases. The data set can be described thus: Inhibition of tumor cell-induced metastases in C57BL/6 mice. Type of data set: in vivo. Conditions: i.v. daily, 25μg of SF-6,5 per mouse, after induction of metastasis.
Data set [6] has as its system BHK cells and chick embryo fibroblasts. Conditions: Yamada and Kennedy, 1987; cited from earlier work.

Entries after “also recorded” stand apart in the source; their conditions may differ.

As for `N=C(N)NCCCC(=O)N1CCCC(C(=O)NCCC(=O)O)C1` (stereo not shown) [NS-11], the “% Adhesion of activated tumor cells to FN: (% inhibition)” value is recorded as 35% in data set [1] (Conc. 25 μg. ml), 45% in data set [1] (Conc. 50 μg. ml) and 70% in data set [1] (Conc. 100 μg. ml). For the same compound, the “% Adhesion of activated CD4^+ T cell to FN: (% inhibition)” value in data set [2] (Conc. 25 μg. ml) is recorded as 30%; in data set [2] (Conc. 50 μg. ml), 50%; in data set [2] (Conc. 100 μg. ml), 85%. The “Inhibition of cell adhesion relative to RGDS, in words” value in data set [2] (Table 1B) is “better inhibitor of cell adhesion than the RGDS peptide”. Besides, the “% Inhibition of adhesion” value in data set [2] (Table 1B, surrogates 0.2 mM, CD4^+ T cell to FN) came out at 71%. The “% Adhesion of activated CD4^+ to FN” value in data set [2] (Table 1B, surrogates 0.2 mM, none 65) is 19%. The inhibition (in general, the relative decrease from the control value, in per cent) at 100 µM in data set [3] (0.1 mM, ADP-induced, read-out: Percent inhibition of aggregation) came to 90%. In data set [3] (0.1 mM, same concentration), the “Effect on platelet aggregation better than that of the RGD-peptide by” value is approximately 20%. In addition, the inhibition at 300 µM in data set [3] (0.3 mM, ADP-induced, read-out: Percent inhibition of aggregation) was determined as 100%. In data set [3] (FIG. 5, Example 19), the “Inhibition of platelet aggregation, comparison in words” value is “better inhibitor of platelet aggregation than either NS-8 and NS-15; also recorded: found to inhibit platelet aggregation better than the RGD-containing peptide (RGDS)”. The “50% inhibition of platelet aggregation: lower concentration than that of RGDS” value in data set [3] (FIG. 5, vs RGDS) is listed as 30 fold. The “Inhibition of platelet aggregation, in words” value in data set [3] (Table 3) is reported as “better inhibitor of platelet aggregation than SF-6,5; also recorded: significantly better inhibitor than the RGD-containing peptide”.

For GRGDS [reference compound], the Stability to trypsin entry in data set [4] was “completely hydrolized after 5 min”.

In the case of GRGDSP [reference compound], the “% Adhesion of activated tumor cells to FN: (% inhibition)” value in data set [1] (Conc. 25 μg. ml) is given as 30%; in data set [1] (Conc. 50 μg. ml), 40%; in data set [1] (Conc. 100 μg. ml) it was 65%. Further, the “Inhibition of tumor cell-induced metastases” value in data set [5] is reported as “failed to inhibit metastases”. The entries for the “% Adhesion of activated CD4^+ T cell to FN: (% inhibition)” value in data set [2] (Conc. 25 μg. ml), in data set [2] (Conc. 50 μg. ml) and in data set [2] (Conc. 100 μg. ml) were 40%, 50% and 75%, respectively. Also, the “Percent inhibition of aggregation” value in data set [3] (0.1 mM, ADP-induced) is reported as 75%.

As to “Ser-Asp-Gly-Arg (SDGR; printed: Ser-Asp-Gly-Arg)”, in data set [6], the “Inhibition of cell spreading, in words” value is “inhibit spreading of BHK cells and chick embryo fibroblasts on vitronectin-coated substrates and on fibronectin-coated substrates”.
